Results from PMC9021288 (Nature Communications, 2022).
Where “and” joins values, the source holds several entries; their conditions need not be identical. Equal entries are not always repeated. Entries after “also recorded” stand apart in the source; their conditions may differ.

Columns and labels:
[1] = system: P. falciparum NF54 sporozoites / liver stages; assay: Liver-stage development in human primary hepatocytes; type: cell-based, Plasmodium falciparum; parameters: infected hepatocytes (Rep1, Rep2): unit not given here
Method: To assess parasite development in hepatocytes, cryopreserved human primary hepatocytes (Tebu-Bio lot: HC10-10) were thawed according to the manufacturer’s protocol and seeded (50,000 cells per well) in collagen-coated 96-well plates (Greiner). Cells were cultured at 37 °C in 5% CO2 and the medium was refreshed after 3 h and 24 h. Salivary glands from Anopheles stephensi mosquitoes were dissected to obtain NF54 sporozoites that were added (60,000 per well) to hepatocytes 48 h post-thawing. Plates were spun down and sporozoites were incubated with hepatocytes for 3 h. Subsequently, sporozoites were aspirated and compounds diluted in hepatocyte medium, were added to the hepatocytes (0.1% DMSO final concentration). Medium-containing compounds was refreshed daily for four days. Hepatocytes were fixed with ice-cold methanol and samples were blocked with 10% fetal bovine serum (FBS) in PBS. Samples were incubated with rabbit anti-HSP70 (1:75, StressMarq) in 10% FBS for 1-2 h followed by incubation with secondary goat anti-rabbit AlexaFluor 594 antibody (1:1000, Invitrogen) in 10% FBS for 30 min. Samples were washed with PBS containing 0.05% Tween 20 between different steps. Cells were imaged on the Biotek Cytation and images were analyzed automatically using FIJI software.

[2] = Pharmacokinetics in rats; type: in vivo, Sprague Dawley rats
Method: Subsequently, samples were spun down at 1640 g for 5-10 min at 4 °C within 30 min after collection and plasma was collected. […] Urine was collected following an intravenous dose in both rat and dog, allowing renal clearance to be estimated. Human renal clearance was estimated from dog renal clearance as previously described[40] and other human PK parameters were predicted using allometric scaling and/or in vitro clearance data. PK parameters were calculated by naïve pooled approach using WinNonLin software (Phoenix, version 6.3).

[3] = system: mouse primary hepatocytes; assay: Hepatocyte stability, mouse; type: in vitro ADME
[4] = system: rat primary hepatocytes; assay: Hepatocyte stability, rat; type: in vitro ADME
[5] = molecular target: T1, human recombinant CYP2C19 (Homo sapiens, UniProt P33261); assay: CYP reaction phenotyping; type: in vitro ADME; conditions: for Compound remaining (0 min = 100): CYP2C19
T1 construct: purchased Bactosomes (assay run at Cyprotex)
Method: In vitro CYP reaction phenotyping was performed at Cyprotex (Alderly Park, United Kingdom). […] The remaining test compound at each time point was analyzed by LC-MS/MS.

[6] = system: cryopreserved human hepatocytes; assay: MTT cytotoxicity in induction-study hepatocytes; type: cell-based; conditions: up to 500 µM, 72 h, one donor
[7] = Blood to plasma ratio, mouse
[8] = system: human G6PD-A-deficient RBCs; assay: Hemolytic toxicity in NSG mice engrafted with G6PD-deficient human RBCs; conditions: for Hematocrit / Spleen weight: individual mice
Method: Hemolytic toxicity was determined in female NSG mice (Jackson Laboratories) using erythrocytes from a G6PD-A-deficient blood donor (0.4 u/g hemoglobin).

[9] = system: P. falciparum NF54-HGL gametocytes; parameters: method as in earlier work; conditions: ref 15 (Schalkwijk et al.); read-out: Gametocyte IC50; cited from earlier work
[10] = 10 mg/kg group, day 0, individual mice
[11] = 10 mg/kg group, day 4, individual mice
[12] = 10 mg/kg group, day 7, individual mice
[13] = 25 mg/kg group, day 0, individual mice
[14] = 25 mg/kg group, day 4, individual mice
[15] = 25 mg/kg group, day 7, individual mice
[16] = 50 mg/kg group, day 0, individual mice
[17] = 50 mg/kg group, day 4, individual mice
[18] = 50 mg/kg group, day 7, individual mice

T1 sequence (P33261 whole entry): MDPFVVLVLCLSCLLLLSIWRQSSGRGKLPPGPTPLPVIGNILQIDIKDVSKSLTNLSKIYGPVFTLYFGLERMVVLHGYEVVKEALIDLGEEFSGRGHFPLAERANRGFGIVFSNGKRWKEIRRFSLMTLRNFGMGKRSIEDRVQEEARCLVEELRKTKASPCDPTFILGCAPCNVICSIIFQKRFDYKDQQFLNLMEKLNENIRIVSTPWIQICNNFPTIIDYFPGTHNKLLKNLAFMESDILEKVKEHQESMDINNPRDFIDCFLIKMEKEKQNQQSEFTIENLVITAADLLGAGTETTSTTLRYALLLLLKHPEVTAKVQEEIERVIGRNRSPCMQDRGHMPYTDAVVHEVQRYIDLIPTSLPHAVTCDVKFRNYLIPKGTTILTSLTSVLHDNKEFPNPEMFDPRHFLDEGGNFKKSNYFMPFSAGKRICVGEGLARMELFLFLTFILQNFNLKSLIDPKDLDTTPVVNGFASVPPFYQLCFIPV

For `C[C@@H](CNC(=O)[C@H](O)C(C)(C)CO)NC(=O)c1cc(F)c(F)cc1F` [MMV693183], the “efficacy against liver stages” value [1] was “not efficacious against liver stages”, the “infected hepatocytes (Rep1, Rep2)” value ([1]; log concentration (M) -5) was 0.0299 and 0.0223 and the “infected hepatocytes (Rep1, Rep2)” value ([1]; log concentration (M) -5.5) was 0.0585 and 0.0696. For the same molecule, the “infected hepatocytes (Rep1, Rep2)” value ([1]; log concentration (M) -7) was 0.3352 and 0.4993, the “infected hepatocytes (Rep1, Rep2)” value ([1]; log concentration (M) -7.5) was 0.3658 and 0.5068 and the “Observed hepatic/ predicted hepatic” value ([2]; Rat) was 1.0. The “Observed total-renal = observed hepatic” value ([2]; Rat) was 13.5 mL/min/kg, the “Predicted hepatic plasma clearance” value ([2]; Rat) was 13.3 mL/min/kg and the Norm. conc i.v. ([2]; Rat, Time (hrs) 0) was 0 ng/mL. For the same molecule, the Norm. conc i.v. ([2]; Rat, Time (hrs) 0.083333) was 1040 ng/mL and 843.333 ng/mL, the Norm. conc i.v. ([2]; Rat, Time (hrs) 0.25) was 746.667 ng/mL and 613.333 ng/mL and 566.667 ng/mL and the Norm. conc i.v. ([2]; Rat, Time (hrs) 0.5) was 490 ng/mL and 406.667 ng/mL and 376.667 ng/mL. For the same molecule, the Norm. conc i.v. ([2]; Rat, Time (hrs) 1) was 217.333 ng/mL and 175 ng/mL and 167 ng/mL, the Norm. conc i.v. ([2]; Rat, Time (hrs) 2) was 53.3333 ng/mL and 56.3333 ng/mL and 51.6667 ng/mL and the Norm. conc i.v. ([2]; Rat, Time (hrs) 4) was 21.4 ng/mL and 17.9 ng/mL and 18.1 ng/mL. The Norm. conc p.o. ([2]; Rat, Time (hrs) 0) was 0 ng/mL, the Norm. conc p.o. ([2]; Rat, Time (hrs) 0.25) was 726.667 ng/mL and 573.333 ng/mL and 746.667 ng/mL and the Norm. conc p.o. ([2]; Rat, Time (hrs) 0.5) was 686.667 ng/mL and 511.333 ng/mL and 591.333 ng/mL. The Norm. conc p.o. ([2]; Rat, Time (hrs) 1) was 380.667 ng/mL and 303.333 ng/mL and 362 ng/mL, the Norm. conc p.o. ([2]; Rat, Time (hrs) 4) was 22.4667 ng/mL and 18.8 ng/mL and 29.5 ng/mL and the Norm. conc p.o. ([2]; Rat, Time (hrs) 8) was 12.2 ng/mL and 7.667 ng/mL and 10.6333 ng/mL. The “AUC0-∞” value ([2]; i.v. 3 mg/kg, mean) was 2398.4 ng·h/mL, the AUClast ([2]; i.v. 3 mg/kg, mean) was 2394.8 ng·h/mL and the C0 ([2]; i.v. 3 mg/kg, mean) was 3245.1 ng/mL. For the same molecule, the Kel ([2]; i.v. 3 mg/kg, mean) was 0.22 h⁻¹, the Vss_obs ([2]; i.v. 3 mg/kg, mean) was 1962.4 mL/kg and the CLtotal ([2]; i.v. 3 mg/kg, mean, 3 mg/kg) was 21.1 mL/min/kg and 21.14 mL/min/kg and 21 mL/min/kg. The T1/2 ([2]; i.v. 3 mg/kg, mean, 3 mg/kg) was 3.1 h and 3.13 h, the “AUC0-∞” value ([2]; p.o. 30 mg/kg, mean) was 29077.1 ng·h/mL and the AUClast ([2]; p.o. 30 mg/kg, mean) was 29063.9 ng·h/mL. It also gave a CLtotal ([2]; p.o. 30 mg/kg, mean) of 17.57 mL/min/kg, a Cmax ([2]; p.o. 30 mg/kg, mean) of 20466.7 ng/mL and a Kel ([2]; p.o. 30 mg/kg, mean) of 0.27 h⁻¹. The T1/2 ([2]; p.o. 30 mg/kg, mean) was 2.57 h, the Tmax ([2]; p.o. 30 mg/kg, mean) was 15 min and the “%F” value ([2]; p.o. 30 mg/kg, mean, 30 mg/kg) was 121% and 121.24%. The “Compound Remaining (% of 0 min)” value ([3]; 0 min) was 100%, the “Compound Remaining (% of 0 min)” value ([3]; 5 min) was 114% and the “Compound Remaining (% of 0 min)” value ([3]; 10 min) was 109%. For the same molecule, the “Compound Remaining (% of 0 min)” value ([3]; 20 min) was 103%, the “Compound Remaining (% of 0 min)” value ([3]; 40 min) was 101% and the “Compound Remaining (% of 0 min)” value ([3]; 60 min) was 105%. The “Compound Remaining (% of 0 min)” value ([4]; 0 min) was 100%, the “Compound Remaining (% of 0 min)” value ([4]; 5 min) was 96.2% and the “Compound Remaining (% of 0 min)” value ([4]; 10 min) was 97.1%. The “Compound Remaining (% of 0 min)” value ([4]; 20 min) was 97.8%, the “Compound Remaining (% of 0 min)” value ([4]; 40 min) was 92.7% and the “Compound Remaining (% of 0 min)” value ([4]; 60 min) was 89.2%. For the same molecule, the “role in oxidative metabolism” value ([5]; 1 µM, 45 min, to a lower extent) was “responsible for the oxidative metabolism”, the “Compound remaining (0 min = 100)” value ([5]; Incubation time (minutes) 0) was 100 and the “Compound remaining (0 min = 100)” value ([5]; Incubation time (minutes) 5) was 98.6. For the same molecule, the “Compound remaining (0 min = 100)” value ([5]; Incubation time (minutes) 15) was 92.4, the “Compound remaining (0 min = 100)” value ([5]; Incubation time (minutes) 30) was 93.6 and the “Compound remaining (0 min = 100)” value ([5]; Incubation time (minutes) 45) was 95.9. For the same molecule, the “cell viability (MTT)” value [6] was “no change in cell viability”, the “B:P” value [7] was 0.98 and the “Human RBCs” value [8, 10] was 72.9% and 76.8% and 80.6% and 72.4%. For the same molecule, the Reticulocytes [8, 10] was 0.38% and 0.65% and 0.32% and 0.87%, the “Human RBCs” value [8, 11] was 67.9% and 72.1% and 75.9% and 68.6% and the Reticulocytes [8, 11] was 0.35% and 0.44% and 0.25% and 0.57%. For the same molecule, the “Human RBCs” value [8, 12] was 59.6% and 65.8% and 72.2% and 63.3%, the Reticulocytes [8, 12] was 0.17% and 0.14% (2×) and 0.35% and the Hematocrit ([8]; 10 mg/kg group) was 53.45% and 54.69% and 60.66% and 56.45%. For the same molecule, the Spleen weight ([8]; 10 mg/kg group) was 0.305 % of body weight and 0.306 % of body weight and 0.265 % of body weight and 0.369 % of body weight, the “Human RBCs” value [8, 13] was 78.9% and 75.9% and 78.6% and 71.6% and 75.5% and the Reticulocytes [8, 13] was 0.53% and 0.42% and 0.37% and 0.39% and 0.51%. For the same molecule, the “Human RBCs” value [8, 14] was 77.9% and 71.9% and 76% and 64.1% and 70.3%, the Reticulocytes [8, 14] was 0.24% (2×) and 0.32% and 0.61% and 0.43% and the “Human RBCs” value [8, 15] was 77.4% and 67.8% and 68% and 58.3% and 68.8%. The Reticulocytes [8, 15] was 0.16% and 0.23% and 0.17% and 0.22% and 0.15%, the Hematocrit ([8]; 25 mg/kg group) was 61.54% and 73.81% and 62.16% and 56.36% and 57.35% and the Spleen weight ([8]; 25 mg/kg group) was 0.362 % of body weight and 0.462 % of body weight and 0.396 % of body weight and 0.366 % of body weight and 0.21 % of body weight. The “Human RBCs” value [8, 16] was 75.4% (2×) and 77.9% and 80.2% and 74.5%, the Reticulocytes [8, 16] was 0.4% and 0.55% and 0.42% and 0.47% and 0.58% and the “Human RBCs” value [8, 17] was 72.3% and 72.5% and 71.7% and 73.2% and 70.5%. For the same molecule, the Reticulocytes [8, 17] was 0.27% and 0.41% and 0.23% and 0.34% and 0.49%, the “Human RBCs” value [8, 18] was 65.4% and 71.3% and 68.2% and 66% and 66.7% and the Reticulocytes [8, 18] was 0.2% (2×) and 0.1% (2×) and 0.3%. The Hematocrit ([8]; 50 mg/kg group) was 60.66% and 63.64% and 71.67% and 53.85% and 57.63%, the Spleen weight ([8]; 50 mg/kg group) was 0.357 % of body weight and 0.427 % of body weight and 0.135 % of body weight and 0.294 % of body weight and 0.382 % of body weight and the hemolytic toxicity ([8]; 10, 25, 50 mg/kg for four days) was “Absence of detectable hemolytic toxicity; also recorded: did not show signs of hemolytic toxicity”.
In the case of `CC(CNC(=O)C(O)C(C)(C)CO)NC(=O)CCc1ccccc1F` (stereo in doubt) [MMV689258], the IC50 [9] is listed as 12 nM.
